From US20040018501A1, “Methods and systems for analyzing complex biological systems” (priority 2001, published 2004)

Columns and labels:
Format in all cases: cell-based
[1] = tested on: Saccharomyces cerevisiae wild type strain BY4743; test: AF1 combined gene expression and metabolite mapping to KEGG reactions and pathways
Text: In AF1, two different technologies were utilized: gene expression analysis (for examination of mRNA expression) and metabolite analysis. […] As noted previously, existing metabolic databases may be helpful in practicing the methods and systems of the present invention, but many databases include limitations that make their use in data analysis and pathway mapping less than straightforward. […] This caveat to KEGG makes it difficult to pinpoint the correct pathway when attempting to link a gene to a specific pathway. […] The pathway score indicates how meaningful the mapping is, or how likely it is to be correctly indicative of the pathway involved in the perturbation under examination. The method provides a pathway score based on perturbation levels of genes and/or compounds and the information content of each gene and/or compound in the pathway, i.e., a pathway score indicates the extent to which other pathways are mapped to a gene/compound. […] Degree of perturbation can be calculated, for example, based on a number of standard deviations from a norm, and included in an equation such as the one shown above, so that not only the number of pathways is taken into account, but also accounts for the amount of gene transcript or compound present as compared to a control. […] Of the 676 compounds under consideration, 77 were detected in the AF1 samples. […]

[2] = tested on: Saccharomyces cerevisiae wild type strain BY4743; test: AF1 yeast gene expression analysis (microarray); settings: p < 0.05, KEGG mapping
Method: Saccharomyces cerevisiae wild type strain BY4743 was purchased from American Type Culture Center (ATCC, Manassas, Va.). The yeast strain was grown in YPD or SD media. […] The cultures started from fresh single colonies were grown in 1.0 ml YPD overnight at 30° C. […] The OD600 was adjusted to 1.0 with YPD media, then 2.0 ml of each was inoculated into three 250 ml flasks, each containing 50 ml of SD media. […] The cells were kept growing for another two hours, then collected by centrifugation at 4000 rpm for 5 minutes at 4° C. Pellets were washed once with ice-cold water, then were lyophilized overnight at 4° C. […] RNA quality was determined using the Bioanalyzer 2100 and the RNA 6000 assay (Agilent Technologies, Palo Alto, Calif.) according to manufacturer's instructions. RNA concentrations were determined spectrophotometrically by measuring the absorption at 260 nm in an Ultrospec 2000 (Pharmacia Biotech, Piscataway, N.J.). […] Labeled cRNAs were evaluated using the RNA 6000 assay on the Agilent Bioanalyzer 2100. Labeled cRNA concentrations were determined spectrophotometrically by measuring the absorption at 260 nm in an Ultrospec 2000 (Pharmacia Biotech, Piscataway, N.J.). […] Each feature was determined from an array's associated pattern file and a detection algorithm. […] Data was evaluated after combining results from fluor reversal replicate hybridizations. […]

[3] = tested on: Saccharomyces cerevisiae wild type strain BY4743; test: AF1 yeast metabolite analysis by GC-MS and LC-MS; settings: for # Compounds perturbed: 2×MIC, two hours

C[C@@H]1[C@H](O)[C@@H](C)/C=C/C=C/C=C/C=C/C=C/C=C/C=C/[C@H](O[C@@H]2O[C@H](C)[C@@H](O)[C@H](N)[C@@H]2O)C[C@@H]2O[C@](O)(C[C@@H](O)C[C@@H](O)[C@H](O)CC[C@@H](O)C[C@@H](O)CC(=O)O[C@H]1C)C[C@H](O)[C@H]2C(=O)O [Amphoteracin B]
Number of Reactions Having an Enzyme and at Least One Compound Perturbed [1]: 54 | # Pathways Affected by at Least One Gene [2]: 97 | # Compounds perturbed ([3]; P < 0.05): 16 | # Compounds perturbed ([3]; P < 0.1): 21 | Fold Change of campesterol ([3]; platform GC): 0 | Fold Change of desmosterol ([3]; platform GC): 0 | Fold Change of octadecanoic acid ([3]; platform GC): 0.21 | Fold Change of abscisic acid ([3]; platform LC): 0 | Fold Change of adenosine ([3]; platform LC): 0 | Fold Change of riboflavin ([3]; platform LC): 0 | Fold Change of 4-methylcatechol ([3]; platform nLC): 0 | Fold Change of 5hydroxyLtryptophan ([3]; platform nLC): 0 | Fold Change of 6-benzylaminopurine ([3]; platform nLC): 0 | Fold Change of NacetylDglucosamine ([3]; platform nLC): 0 | Fold Change of NacetylLornithine ([3]; platform nLC): 0 | Fold Change of abscisic acid ([3]; platform nLC): 0 | Fold Change of adenine ([3]; platform nLC): 0 | Fold Change of adenosine ([3]; platform nLC): 0 | Fold Change of anthranilic acid ([3]; platform nLC): 0 | Fold Change of argininosuccinate ([3]; platform nLC): 0 | Fold Change of benzoic acid ([3]; platform nLC): 0 | Fold Change of catechol ([3]; platform nLC): 0 | Fold Change of cinnamic acid ([3]; platform nLC): 0 | Fold Change of citricanoic/itaconi ([3]; platform nLC): 0 | Fold Change of coumaric acid ([3]; platform nLC): 0 | Fold Change of cytosine ([3]; platform nLC): 0 | Fold Change of diaminopimelic acid ([3]; platform nLC): 0 | Fold Change of dihydrofolic acid ([3]; platform nLC): 0 | Fold Change of estrone ([3]; platform nLC): 0 | Fold Change of farnesol ([3]; platform nLC): 0 | Fold Change of folic acid ([3]; platform nLC): 0 | Fold Change of gibberellic ([3]; platform nLC): 0 | Fold Change of glutamine/lysine ([3]; platform nLC): 0.07919 | Fold Change of guanine ([3]; platform nLC): 0 | Fold Change of histidine ([3]; platform nLC): 0 | Fold Change of homogentisic/uric ([3]; platform nLC): 0 | Fold Change of hydrocortisone ([3]; platform nLC): 0 | Fold Change of indole3pyruvic acid ([3]; platform nLC): 0 | Fold Change of jasmonic acid ([3]; platform nLC): 0 | Fold Change of kinetin ([3]; platform nLC): 0 | Fold Change of luteolin ([3]; platform nLC): 0 | Fold Change of malonic acid ([3]; platform nLC): 0 | Fold Change of methionine ([3]; platform nLC): 0 | Fold Change of phenylpyruvic acid ([3]; platform nLC): 0 | Fold Change of phosphoenolpyruvate ([3]; platform nLC): 0 | Fold Change of pinitol ([3]; platform nLC): 0 | Fold Change of porphobilinogen ([3]; platform nLC): 0 | Fold Change of retinoic acid ([3]; platform nLC): 0 | Fold Change of salicylic/HObenzoic ([3]; platform nLC): 0 | Fold Change of shikimic acid ([3]; platform nLC): 0 | Fold Change of sinapinic acid ([3]; platform nLC): 0 | Fold Change of thymine ([3]; platform nLC): 0 | Fold Change of urocanic acid ([3]; platform nLC): 0 | Fold Change of xanthosineDiH2O ([3]; platform nLC): 0 | Fold Change of zeatin ([3]; platform nLC): 0 | Fold Change of 4-aminobenzoic acid ([3]; platform pLC): 0 | Fold Change of 4-methylcatechol ([3]; platform pLC): 0 | Fold Change of 5hydroxyLtryptophan ([3]; platform pLC): 0 | Fold Change of 6benzylaminopurine ([3]; platform pLC): 0 | Fold Change of NacetylDglucosamine ([3]; platform pLC): 0 | Fold Change of NacetylLglutamate ([3]; platform pLC): 0 | Fold Change of allantoic acid ([3]; platform pLC): 0 | Fold Change of anthranilic acid ([3]; platform pLC): 0 | Fold Change of argininosuccinate ([3]; platform pLC): 0 | Fold Change of biotin ([3]; platform pLC): 0 | Fold Change of caffeine ([3]; platform pLC): 0 | Fold Change of citric acid TME ([3]; platform pLC): 0 | Fold Change of cytidine ([3]; platform pLC): 0 | Fold Change of cytosine ([3]; platform pLC): 0 | Fold Change of diaminopimelic acid ([3]; platform pLC): 0 | Fold Change of dihydrofolic acid ([3]; platform pLC): 0 | Fold Change of dipicolinic acid ([3]; platform pLC): 0 | Fold Change of folic acid ([3]; platform pLC): 0 | Fold Change of glucosamine ([3]; platform pLC): 0 | Fold Change of glucosamine6PO4 ([3]; platform pLC): 0 | Fold Change of histidine ([3]; platform pLC): 0 | Fold Change of hydrocortisone ([3]; platform pLC): 0 | Fold Change of itaconic acid dimes ([3]; platform pLC): 0 | Fold Change of kinetin ([3]; platform pLC): 0 | Fold Change of luteolin ([3]; platform pLC): 0 | Fold Change of niacinamide ([3]; platform pLC): 0 | Fold Change of nopaline ([3]; platform pLC): 0 | Fold Change of phosphoenolpyruvate ([3]; platform pLC): 0 | Fold Change of progesterone ([3]; platform pLC): 0 | Fold Change of sugar-phosphate ([3]; platform pLC): 0 | Fold Change of thiamine ([3]; platform pLC): 0 | Fold Change of thymine ([3]; platform pLC): 0 | Fold Change of tryptophan ([3]; platform pLC): 0 | Fold Change of urocanic acid ([3]; platform pLC): 0 | Fold Change of xanthosine(diH2O) ([3]; platform pLC): 0 | Fold Change of zeatin ([3]; platform pLC): 0
